Tests used:
amyloid-beta plaques [1] = biological target: T1, amyloid-beta plaques (Homo sapiens, UniProt P05067); test: ThT emission with supernatant of BCAP (released ANA); assay type: biochemical; conditions: PBS pH 7.4, 25° C., ThT 10 μM
T1 construct: amyloid-beta (Aβ) 1-42 (Anaspec, AS-20276, MW=4514.1, 1 mg); purchased Anaspec AS-20276

amyloid-beta plaques [2] = biological target: T1, amyloid-beta plaques; test: Confocal microscopy of amyloid-beta plaques with thioflavin S (ThS); conditions: incubation with ANA for 24 hours
Experimental: (§1) To prepare amyloid-beta plaques, amyloid-beta (Aβ) 1-42 (Anaspec, AS-20276, MW=4514.1, 1 mg) was dissolved in a 1× PBS buffer (pH 7.4, 1 mL) to a final concentration of 222 μM. The solution was incubated (200 rpm) at 37° C. for 3 days, and the formed amyloid-beta plaques (Aβ plaques) were used in the following in vitro experiment without additional purification.
In addition, to evaluate the presence of amyloid-beta plaques (AB plaques) and a change in the disaggregation morphology of amyloid-beta plaques according to incubation with ANA for 24 hours, thioflavin S (ThS), a probe of amyloid-beta plaques, was additionally treated, and the change thereof was confirmed by fluorescence analysis using a confocal microscope. The samples (Aβ plaques, Aβ plaques +ANA) were added to 1 mL of a ThS (0.5%) solution, and each mixture was pipetted onto a slide glass and dried overnight at room temperature. Then, fluorescence images were obtained using a laser scanning confocal microscope (CLSM, LSM800, Zeiss, Oberkochen, Germany). Confocal images were obtained under excitation at 520 nm (laser power: 3.00%) using a detector (GaAsP, detector gain: 680 V, detector wavelength: 548 to 617 nm).

[3] = biological target: T2, amyloid-beta plaques (amyloid-beta (Aβ) 1-42) (Homo sapiens, UniProt P05067); test: Thioflavin T (ThT) fluorescence analysis of amyloid-beta plaque disaggregation; assay type: biochemical
T2 construct: amyloid-beta (Aβ) 1-42 (Anaspec, AS-20276, MW=4514.1, 1 mg); purchased Anaspec AS-20276
T2 sequence (P05067 672-713 limits assumed): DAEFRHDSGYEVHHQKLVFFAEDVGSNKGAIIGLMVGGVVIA
Experimental: To prepare amyloid-beta plaques, amyloid-beta (Aβ) 1-42 (Anaspec, AS-20276, MW=4514.1, 1 mg) was dissolved in a 1× PBS buffer (pH 7.4, 1 mL) to a final concentration of 222 μM. The solution was incubated (200 rpm) at 37° C. for 3 days, and the formed amyloid-beta plaques (Aβ plaques) were used in the following in vitro experiment without additional purification. From the formed library, hit compounds were identified through fluorescence analysis using thioflavin T (ThT), a probe of amyloid-beta plaques. Specifically, each amyloid-beta plaque disaggregation candidate (100 μM) was mixed with amyloid-beta plaques (10 μM) and ThT (10 μM), and incubated at 37° C. for 24 hours, and then a change in fluorescence intensity of ThT at 482 nm was confirmed (excitation wavelength: 413 nm). The absorption and emission spectra of ThT were obtained using UV/vis absorption spectroscopy (Agilent, California, USA) and a spectrofluorophotometer (Shimadzu Corp., Kyoto, Japan). For Compound P (ANA), a hit compound confirmed in Example 1, the amyloid-beta plaque disaggregation efficacy under various concentration conditions and pH conditions was confirmed through ThT assay in the same manner as in Example 1, and an emission intensity plot of ThT (10 μM) at 482 nm was shown in FIG. 2 (excitation wavelength: 413 nm).

amyloid-beta plaques [4] = biological target: T1, amyloid-beta plaques; test: TEM analysis of amyloid-beta plaque morphology; conditions: ANA (100 µM), plaques 20 μM
Experimental: as §1
For TEM analysis, amyloid-beta plaques (20 μM) or amyloid-beta plaques (20 μM) and a compound (ANA, 100 μM) were treated on copper grids at room temperature. Each grid treated with samples (Aβ plaques or Aβ plaques+ANA) was washed three times with DI H2O and then stained with uranyl acetate (1% w/v DI H2O, 5 μL) for 1 minute. The uranyl acetate was removed, the grids were dried at room temperature for 20 minutes, and then the morphology of amyloid-beta plaques was analyzed by transmission electron microscopic images (TEM, Tecnai, G2 F30ST, FEI Company, OR, USA).

T1 sequence (P05067 672-713 limits assumed): as above

Nc1ccc2cc(S(=O)(=O)O)ccc2c1 [ANA, 6-amino-2-naphthalenesulfonic acid]
amyloid-beta plaque disaggregation efficacy of ANA released from BCAP (amyloid-beta plaques [1]): still has the amyloid-beta plaque disaggregation efficacy
fluorescence intensity of ThS after treatment (amyloid-beta plaques [2]): significantly reduced
amyloid-beta plaque disaggregation efficacy versus concentration ([3]; ANA 10 μM to 100 μM, plaques 10 μM): concentration-dependent manner
amyloid-beta plaque disaggregation efficacy at low concentration ([3]; ANA 10 μM, plaques 10 μM): significantly high amyloid-beta plaque disaggregation efficacy
fluorescence intensity change of ThT compared to a control group ([3]; candidate 100 μM, amyloid-beta plaques 10 μM, ThT 10 μM, 37° C., 24 hours, 482 nm): 23%
amyloid-beta plaque disaggregation efficacy among A-T candidates ([3]; candidate 100 μM, library screening): highest amyloid-beta plaque disaggregation efficacy
amyloid-beta plaque disaggregation efficacy under various pH conditions ([3]; pH 3, 5, 7, 7.4, and 9): showed amyloid-beta plaque disaggregation efficacy at all pH conditions
amyloid-beta plaque disaggregation efficacy at pH of the brain ([3]; pH 7.4): highest amyloid-beta plaque disaggregation efficacy
morphology of amyloid-beta plaques after treatment (TEM) (amyloid-beta plaques [4]): disaggregated and released into monomers

Reference: US20250295612A1, “NOVEL AMYLOID-BETA AGGREGATE DEGRADER AND BRAIN-TARGETING DRUG DELIVERY SYSTEM USING SAME” (UNIVERSITY-INDUSTRY COOPERATION GROUP OF KYUNG HEE …, priority 2022, published 2025)
